One may read the IC50 as the concentration that inhibits the measured activity by half.

Experimental findings from patent US20240335442A1 (Eurofarma Laboratórios S.A., priority 2021, published 2024) are described below.

The target in assay [1] is human sodium channel Nav 1.8 (Homo sapiens (Human), UniProt Q9Y5Y9). Nature of the assay: Automated whole-cell voltage-clamp (ScreenPatch 384P), Nav 1.8 sodium current, Protocol 1. Format: cell-based. To be noted: Protocol 1 (holding voltage -90 mV, 0.1 Hz); CHO cells expressing human Nav 1.8; room temperature; read-out: Nav1.8 IC50. As to the method:
(§1) Biological assays were performed on Chinese hamster ovary (CHO) cells expressing the human sodium channels Nav 1.8 and Nav 1.7 stably.
(§2) The experimental voltage-clamp protocol using the whole cell configuration was established on the automated ScreenPatch® 384P platform (SP384PE, Nanion Technologies, Livingston, NJ) and recording of the results was performed with a Nanion 384-well Patch Clamp chip (NPC) (Nanion Technologies, Livingston, NJ).
(§3) Compounds of Formula (I), were diluted in eight concentrations in the extracellular solution composed of physiological saline, buffered with HEPES (mM): NaCl, 137; KCl, 4; CaCl2, 3.8; MgCl2, 1; HEPES, 10; Glucose, 10; pH 7.4. The […], 50; CsF, 90; MgCl2, 5; EGTA, 5; HEPES, 10; pH 7.2. The duration of exposure of each compound with the cells expressing Nav 1.7 or Nav 1.8 was at least five minutes and the assays were performed at room temperature.
(§4) The measurements of the sodium currents of Nav 1.8 and Nav 1.7 were obtained using the voltage protocols described below: • Protocol 1: A holding voltage of-90 mV was established followed by a voltage phase of 200 ms to-120 mV, followed by a voltage step of 10 mV for 1 second for Nav 1.8 or 0 mV for Nav 1.7, followed by a step of-100 mV for 20 ms, followed by a step of 20 ms for 10 mV for Nav 1.8 or 0 mV for Nav 1.7 (TP1A) before returning to the holding voltage of-90 mV. • Protocol 2: A holding voltage of-100 mV was established followed by an inactivation voltage step at −40 mV for 8 seconds, followed by a −100 mV step for 20 ms, followed by a 20 ms step for 10 mV for Nav 1.8 or 0 mV for Nav 1.7 (TP1A) before returning to the holding voltage of-100 mV.
(§5) Protocols were repeated at a frequency of 0.1 Hz (Protocol 1) or 0.05 Hz (Protocol 2) and current amplitude was quantified over the TP1A phase log. The variation in the peak amplitude of the current was evaluated according to the Formula described below, after exposure of the cells expressing the channels, at each concentration of the different compounds:
(§6) where ITP1A,basal, and ITP1A,molecule represent the entry peaks of sodium currents into TP1A prior to exposure to the compound and in the presence of the compound, respectively.
(§7) The decrease in peak current amplitude, after exposure of the cells to the compounds, was used to calculate the percent relative blocking of the channels relative to the positive control according to the Formula below: […]
(§8) where % V and % CP represent the averages of the values of current inhibition with a vehicle (DMSO) and positive controls, respectively. The sodium currents of the positive control were considered as 100%.
(§9) where [Test] represents the concentration of the evaluated molecule, IC50 is the concentration of the compound that generates half of the maximum inhibition, N is the Hill's coefficient and % Block′ is the percentage of the sodium channel current (Nav 1.8 and Nav 1.7) inhibited at each concentration of the evaluated molecule. Data were obtained by non linear least squares regression with XL fit for Excel (Microsoft, Redmond, WA).
(§10) Compounds were tested in at least one assay to obtain the IC50 value.

Assay [2] addresses human sodium channel Nav 1.7 (Homo sapiens (Human), UniProt Q15858). The assay can be described thus: Automated whole-cell voltage-clamp (ScreenPatch 384P), Nav 1.7 sodium current, Protocol 1. Format: cell-based. To be noted: Protocol 1 (holding voltage -90 mV, 0.1 Hz); CHO cells expressing human Nav 1.7; room temperature; read-out: Nav1.7 IC50. As to the method: as §1, §2, §3, §4, §5, §6, §7, §8, §9, §10

human sodium channel Nav 1.7, sequence (Q15858 whole entry): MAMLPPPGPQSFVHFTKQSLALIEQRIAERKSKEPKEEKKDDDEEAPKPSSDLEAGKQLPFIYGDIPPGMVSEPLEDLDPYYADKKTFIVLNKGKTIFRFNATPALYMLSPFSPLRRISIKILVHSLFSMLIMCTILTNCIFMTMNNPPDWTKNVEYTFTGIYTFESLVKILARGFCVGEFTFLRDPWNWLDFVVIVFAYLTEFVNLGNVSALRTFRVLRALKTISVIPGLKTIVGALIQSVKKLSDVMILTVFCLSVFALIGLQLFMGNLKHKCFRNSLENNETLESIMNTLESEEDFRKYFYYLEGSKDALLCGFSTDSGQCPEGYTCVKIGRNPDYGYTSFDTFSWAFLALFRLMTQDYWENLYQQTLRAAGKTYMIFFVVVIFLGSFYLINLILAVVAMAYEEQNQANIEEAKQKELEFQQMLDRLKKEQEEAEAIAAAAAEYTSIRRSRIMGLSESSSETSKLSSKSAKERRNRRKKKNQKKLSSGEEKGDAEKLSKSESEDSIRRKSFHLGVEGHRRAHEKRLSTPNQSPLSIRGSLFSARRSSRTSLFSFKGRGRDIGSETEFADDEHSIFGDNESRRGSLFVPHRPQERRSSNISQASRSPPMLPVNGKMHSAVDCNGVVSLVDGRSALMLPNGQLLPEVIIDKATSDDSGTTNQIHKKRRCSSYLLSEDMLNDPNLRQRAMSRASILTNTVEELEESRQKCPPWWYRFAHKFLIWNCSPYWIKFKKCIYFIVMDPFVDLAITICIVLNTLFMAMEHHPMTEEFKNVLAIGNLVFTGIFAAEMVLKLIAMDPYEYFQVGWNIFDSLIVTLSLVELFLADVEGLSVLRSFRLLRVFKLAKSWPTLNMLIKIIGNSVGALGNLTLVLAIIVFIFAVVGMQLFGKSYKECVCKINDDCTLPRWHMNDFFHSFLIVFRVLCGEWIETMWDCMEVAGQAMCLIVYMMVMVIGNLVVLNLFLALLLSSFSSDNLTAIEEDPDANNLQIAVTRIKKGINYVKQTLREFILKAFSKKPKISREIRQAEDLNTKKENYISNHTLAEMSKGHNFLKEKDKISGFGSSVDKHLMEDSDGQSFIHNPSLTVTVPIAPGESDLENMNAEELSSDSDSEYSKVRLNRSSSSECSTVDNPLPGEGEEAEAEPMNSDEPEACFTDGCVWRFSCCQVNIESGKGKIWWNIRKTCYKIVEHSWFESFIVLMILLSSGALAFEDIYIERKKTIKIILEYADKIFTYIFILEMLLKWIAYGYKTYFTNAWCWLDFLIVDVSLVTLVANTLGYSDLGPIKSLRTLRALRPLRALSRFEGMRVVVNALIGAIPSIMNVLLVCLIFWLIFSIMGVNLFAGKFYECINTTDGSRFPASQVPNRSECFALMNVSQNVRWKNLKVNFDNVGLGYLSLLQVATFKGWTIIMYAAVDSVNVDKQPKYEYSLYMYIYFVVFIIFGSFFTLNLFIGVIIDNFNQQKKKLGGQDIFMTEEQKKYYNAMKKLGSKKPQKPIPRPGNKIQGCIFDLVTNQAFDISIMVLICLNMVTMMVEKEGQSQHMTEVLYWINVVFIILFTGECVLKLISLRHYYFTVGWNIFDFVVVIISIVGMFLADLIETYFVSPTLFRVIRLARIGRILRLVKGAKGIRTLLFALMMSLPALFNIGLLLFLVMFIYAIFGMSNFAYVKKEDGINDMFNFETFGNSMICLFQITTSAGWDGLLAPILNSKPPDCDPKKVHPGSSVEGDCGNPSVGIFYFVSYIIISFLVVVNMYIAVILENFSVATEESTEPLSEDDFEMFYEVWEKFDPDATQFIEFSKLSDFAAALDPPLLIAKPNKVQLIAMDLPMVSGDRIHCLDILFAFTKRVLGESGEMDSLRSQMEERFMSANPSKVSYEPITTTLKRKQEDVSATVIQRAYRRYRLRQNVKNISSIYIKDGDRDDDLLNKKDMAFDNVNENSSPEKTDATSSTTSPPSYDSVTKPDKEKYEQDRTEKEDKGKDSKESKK
human sodium channel Nav 1.8, sequence (Q9Y5Y9 whole entry): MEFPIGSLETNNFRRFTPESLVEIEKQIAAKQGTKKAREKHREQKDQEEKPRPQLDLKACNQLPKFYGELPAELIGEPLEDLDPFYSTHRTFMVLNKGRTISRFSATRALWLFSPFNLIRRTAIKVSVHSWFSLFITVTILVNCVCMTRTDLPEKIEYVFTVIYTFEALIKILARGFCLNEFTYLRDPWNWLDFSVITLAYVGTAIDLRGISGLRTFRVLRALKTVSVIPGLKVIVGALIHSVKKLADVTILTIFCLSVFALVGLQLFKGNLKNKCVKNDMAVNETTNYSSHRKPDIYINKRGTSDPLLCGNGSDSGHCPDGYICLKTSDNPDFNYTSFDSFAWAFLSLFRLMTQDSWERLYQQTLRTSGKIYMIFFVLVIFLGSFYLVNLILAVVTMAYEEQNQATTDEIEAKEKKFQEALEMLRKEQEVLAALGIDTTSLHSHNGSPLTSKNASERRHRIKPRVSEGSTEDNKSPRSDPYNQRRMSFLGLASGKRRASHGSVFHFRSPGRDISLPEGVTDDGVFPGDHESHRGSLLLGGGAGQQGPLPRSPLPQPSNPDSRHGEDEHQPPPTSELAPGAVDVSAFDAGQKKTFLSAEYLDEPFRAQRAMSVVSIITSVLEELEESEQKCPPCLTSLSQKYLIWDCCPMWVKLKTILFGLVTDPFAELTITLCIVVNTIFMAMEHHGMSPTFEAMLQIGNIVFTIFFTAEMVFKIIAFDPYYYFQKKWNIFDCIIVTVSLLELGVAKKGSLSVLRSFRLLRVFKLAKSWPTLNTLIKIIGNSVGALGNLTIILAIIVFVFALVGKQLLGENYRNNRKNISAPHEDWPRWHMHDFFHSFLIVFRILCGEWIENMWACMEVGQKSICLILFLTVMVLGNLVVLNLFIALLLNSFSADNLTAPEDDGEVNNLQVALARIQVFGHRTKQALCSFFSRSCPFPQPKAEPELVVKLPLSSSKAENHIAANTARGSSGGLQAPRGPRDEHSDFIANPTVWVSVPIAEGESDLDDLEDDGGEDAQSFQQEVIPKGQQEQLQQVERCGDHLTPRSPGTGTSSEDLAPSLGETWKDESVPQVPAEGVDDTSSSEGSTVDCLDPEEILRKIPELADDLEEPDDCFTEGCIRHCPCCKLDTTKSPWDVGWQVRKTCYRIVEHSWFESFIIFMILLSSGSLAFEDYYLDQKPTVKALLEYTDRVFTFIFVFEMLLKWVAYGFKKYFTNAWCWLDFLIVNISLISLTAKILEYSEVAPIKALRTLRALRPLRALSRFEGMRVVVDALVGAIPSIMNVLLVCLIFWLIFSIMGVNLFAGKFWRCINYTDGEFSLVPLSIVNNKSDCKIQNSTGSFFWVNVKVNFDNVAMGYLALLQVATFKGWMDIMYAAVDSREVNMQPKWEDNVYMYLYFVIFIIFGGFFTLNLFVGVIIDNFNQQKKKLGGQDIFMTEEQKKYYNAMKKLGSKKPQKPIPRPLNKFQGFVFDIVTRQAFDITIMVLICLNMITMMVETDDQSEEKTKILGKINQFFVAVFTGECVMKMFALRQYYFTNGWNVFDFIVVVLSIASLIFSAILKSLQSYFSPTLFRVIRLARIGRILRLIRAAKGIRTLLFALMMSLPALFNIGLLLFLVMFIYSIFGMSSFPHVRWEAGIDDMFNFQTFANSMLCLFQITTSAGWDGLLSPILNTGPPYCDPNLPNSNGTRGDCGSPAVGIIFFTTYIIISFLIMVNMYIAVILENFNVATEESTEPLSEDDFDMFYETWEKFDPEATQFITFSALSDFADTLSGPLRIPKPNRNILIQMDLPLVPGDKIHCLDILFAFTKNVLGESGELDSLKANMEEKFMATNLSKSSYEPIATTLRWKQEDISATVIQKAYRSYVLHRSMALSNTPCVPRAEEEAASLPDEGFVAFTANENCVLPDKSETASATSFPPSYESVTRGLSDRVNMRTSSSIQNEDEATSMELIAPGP

With `CCOc1ccc(-c2cncc(C(=O)N/N=C/c3cc(OC)cc4ncoc34)n2)cc1` [Compound 5, (E)-6-(4-ethoxyphenyl)-N′-((5-methoxybenzo[d]oxazol-7-yl)methylene)pyrazine-2-carbohydrazide], the IC50 is 5.63 µM in assay [1] and over 10 µM in assay [2].
Consider `CCOc1ccc(-c2cncc(C(=O)N/N=C(\C)c3cc(OC)cc(OC)c3)n2)cc1` [Compound 166, (E)-N′-(1-(3,5-dimethoxyphenyl)ethylidene)-6-(4-ethoxyphenyl)pyrazine-2-carbohydrazide], for which the figures for the IC50 in assay [1] and in assay [2] were 9.18 µM and 6.36 µM, respectively.
The like results for `CCOc1ccc(-c2cncc(C(=O)N/N=C/c3cc(OC)ccn3)n2)cc1` [Compound 9, (E)-6-(4-ethoxyphenyl)-N′-((4-methoxypyridin-2-yl)methylene)pyrazine-2-carbohydrazide] were, in that order, 9.77 µM and over 10 µM.
The like results for `CCOc1ccc(-c2cncc(C(=O)N/N=C/c3ccc(OC)cc3)n2)cc1` [Compound 23, (E)-6-(4-ethoxyphenyl)-N′-(4-methoxybenzylidene)pyrazine-2-carbohydrazide] were, in that order, 1.9 µM and 0.697 µM.
The like results for `CCOc1ccc(-c2cncc(C(=O)N/N=C/c3cc(OC)cc(OCCN(C)C)c3)n2)cc1` [Compound 4, (E)-N′-(3-(2-(dimethylamino)ethoxy)-5-methoxybenzylidene)-6-(4-ethoxyphenyl)pyrazine-2-carbohydrazide] were, in that order, 6.02 µM and 6.66 µM.
